Laboratory results reported in patent US7968526B2, “Antisense oligonucleotides directed to ribonucleotide reductase R2 and uses thereof in the treatment of cancer” (Lorus Therapeutics Inc., priority 2003, dated 2011).

Experiments:
[1] = test system: SK-OV-3 human ovary adenocarcinoma cells; test: SK-OV-3 ovary tumour xenograft in CD-1 nude mice, combination with taxol or cisplatin (1.8); format: in vivo, human cells in mice; settings: SEQ ID NO:1 10 mg/kg i.v. every other day 17 times
Procedure: After 52 days the mice were sacrificed and the tumours weighed. […] Mitoxantrone was administered intravenously once at the beginning of the treatments at a dose of 2 mg/kg (FIG. 4A) or once a week for four weeks at a reduced dose of 0.8 mg/kg (FIG. 4B). All treatments were stopped at day 50 (FIG. 4A) or 48 (FIG. 4B), respectively. […] Mitoxantrone was administered intravenously once at the beginning of the treatments at a dose of 2 mg/kg (FIG. 5A) or once a week for four weeks at a reduced dose of 0.8 mg/kg (FIG. 5B). All treatments were stopped at day 42 (FIG. 5A) or 38 (FIG. 5B), respectively. […] A2058 is a metastatic melanoma cell line. […] All treatments were stopped at day 24. […] Taxol was administered intravenously once a week at a dose of 10 mg/kg for three (FIG. 7A) or four weeks (FIG. 7C). Doxorubicin was administered intravenously once a week at a dose of 5 mg/kg for first three weeks (FIG. 7A) or for two weeks (FIG. 7C). All treatments were stopped at day 33 (FIG. 7A) or at day 26 (FIG. 7C), respectively. […] In FIG. 7C, antitumour activities were estimated by the inhibition of tumour volume, which was measured with calipers. Each point represents mean tumour volume calculated from 10 animals per experimental group. […] Taxol was administered intravenously once a week for first three weeks and intraperitoneally once a week for next two weeks at a dose of 10 mg/kg. Cisplatin was administered intravenously once a week for first three weeks and intraperitoneally once a week for next two weeks at a dose of 4 mg/kg. All treatments were stopped at day 40. Antitumour activities were estimated by the inhibition of tumour volume, which was measured with caliper. Each point represents mean tumour volume calculated from 9 animals per experimental group.

[2] = test system: Hep G2 human liver cancer cells; test: HepG2 liver tumour growth in CD-1 nude mice (3.7); format: in vivo, human cells in mice
Procedure: Treatments lasted for 14 days thereafter. Antitumour activities were estimated by the inhibition of tumour volume, which was measured with a caliper on four different occasions over the treatment period. Each point represents mean tumour volume calculated from 5 animals per experimental group. […] Control animals (control) received saline alone for the same period. At the end of the treatments, the animals were sacrificed, tumours were excised and their weights were measured. Each bar represents mean tumour weight calculated from 6 animals per experimental group. […] Treatments lasted for 24 days thereafter. Antitumour activities were estimated by the inhibition of tumour volume, which was measured with a caliper at two-day intervals over the treatment period. Each point represents mean tumour volume calculated from 4 animals per experimental group. […] Treatments lasted for 24 days thereafter. Antitumour activities were estimated by the inhibition of tumour volume, which was measured with a caliper at two-day intervals over the treatment period. Each point represents mean tumour volume calculated from 4 animals per experimental group. […] Treatments lasted for 22 days thereafter. […] Each point represents mean tumour volume calculated from 5 animals per experimental group. […] Treatments lasted for 14 days thereafter. Antitumour activities were estimated by the inhibition of tumour volume, which was measured with a caliper on four different occasions over 16-day period. Each point represents mean tumour volume calculated from 5 animals per experimental group. […] Two different batches of SEQ ID NO:1, synthesized at different times (designated as batch 1 and batch 2), were tested to detect possible batch-specific effects. […] Treatments lasted for 34 days thereafter. Antitumour activities were estimated by the inhibition of tumour volume, which was measured with a caliper at two-day intervals over the treatment period. Each point represents mean tumour volume calculated from 5 animals per experimental group. […] Treatments lasted for 30 days thereafter. Antitumour activities were estimated by the inhibition of tumour volume, which was measured with a caliper at various time intervals over the span of 30 days. Each point represents mean tumour volume calculated from 6 animals per experimental group. […] All treatments were stopped at day 36. Antitumour activities were estimated by the inhibition of tumour volume, which was measured with a caliper. Each point represents mean tumour volume calculated from 5 animals per experimental group. […] All treatments were stopped at day 52. […] Antitumour activities were estimated by the inhibition of tumour volume, which was measured with a caliper.

[3] = test system: SK-OV-3 human ovarian cancer cells; test: SK-OV-3 ovary tumour growth in Balb/c nude mice (3.4); format: in vivo, human cells in mice
Procedure: Treatments lasted for 14 days thereafter. Antitumour activities were estimated by the inhibition of tumour volume, which was measured with a caliper on four different occasions over the treatment period. Each point represents mean tumour volume calculated from 5 animals per experimental group. […] Control animals (control) received saline alone for the same period. At the end of the treatments, the animals were sacrificed, tumours were excised and their weights were measured. Each bar represents mean tumour weight calculated from 6 animals per experimental group. […] Treatments lasted for 24 days thereafter. Antitumour activities were estimated by the inhibition of tumour volume, which was measured with a caliper at two-day intervals over the treatment period. Each point represents mean tumour volume calculated from 4 animals per experimental group. […] Treatments lasted for 24 days thereafter. Antitumour activities were estimated by the inhibition of tumour volume, which was measured with a caliper at two-day intervals over the treatment period. Each point represents mean tumour volume calculated from 4 animals per experimental group. […] Each point represents mean tumour volume calculated from 5 animals per experimental group. […] Antitumour activities were estimated by the inhibition of tumour volume, which was measured with a caliper on four different occasions over 16-day period. Each point represents mean tumour volume calculated from 5 animals per experimental group. […] Antitumour activities were estimated by the inhibition of tumour volume, which was measured with a caliper at two-day intervals over the treatment period. Each point represents mean tumour volume calculated from 5 animals per experimental group. […] Antitumour activities were estimated by the inhibition of tumour volume, which was measured with a caliper at various time intervals over the span of 30 days. Each point represents mean tumour volume calculated from 6 animals per experimental group. […] Antitumour activities were estimated by the inhibition of tumour volume, which was measured with a caliper. […]

[4] = test system: R3 mouse fibrosarcoma cells; test: R3 mouse fibrosarcoma tumour growth in C3H mice; format: in vivo
Procedure: Treatments lasted for 14 days thereafter. Anti-tumour activities were estimated by the inhibition of tumour volume, which was measured with a calliper at two-day intervals starting from day 9. Each point in FIG. 27A represents the mean tumour volume calculated from 6-7 animals per experimental group. […] SEQ ID NO:1 had significant anti-tumour activity compared to saline (P=0.0006), scrambled (P=0.0001) and mismatched (0.0002) controls.
At the end of the treatments, the animals were sacrificed, tumours were excised and their weights were measured. Each bar in FIG. 27C represents mean tumour weight and standard error calculated from 6-8 animals per experimental group. P values compared to saline were as follows: 0.5 mg/kg (P=0.04), 2 mg/kg (P=0.0001), 5 mg/kg (P=0.0015), 10 mg/kg (P=0.0001), 30 mg/kg (P=0.0001).

5′-GGCTAAATCGCTCCACCAAG-3′ (all phosphorothioate, sugars by position and methylation of C not given here) [SEQ ID NO: 1, fully phosphorothioated antisense oligonucleotide that hybridizes to the coding region of R2 mRNA]
tumour volume data as percentage of saline control ([1]; SK-OV-3 (ovary), CD-1, Taxol 10 mg/kg weekly, Cisplatin 4 mg/kg weekly): 42%
Antitumour effect (tumour volume, FIG. 8) ([1]; SK-OV-3, CD-1 nude mice, taxol 10 mg/kg, cisplatin 4 mg/kg weekly): significant delay of tumour growth compared to saline control
Inhibitory effect on tumour growth (tumour volume, FIG. 20) ([2]; Hep G2, CD-1 nude mice, 2.5 mg/kg i.v. every day, 30 days): significant inhibitory effects on the growth of human hepatoma cells
Inhibition of tumour weight ([2]; Human Liver Carcinoma): ~65%
Inhibition of tumour size ([2]; Human Liver Carcinoma in CD-1 nude mice, Day 30 after tumour implantation): Inhibition of tumour size by 45% in CD-1 nude
Inhibition of tumour weight ([3]; Human Ovary Adenocarcinoma): tumour weight of approximately 50%
Inhibition of tumour size ([3]; Human Ovary Adenocarcinoma in Balb/c Nu-Nu mice, Days 19 to 25 after tumour implantation): Inhibition of tumour size by approximately 35%
Inhibitory effect on tumour growth (tumour volume, FIG. 18C) ([3]; SK-OV-3, Balb/c nude mice, 10 mg/kg i.v. every other day, 22 days): statistically significant inhibitory effects on the growth of human ovary adenocarcinoma cells
Inhibition of tumour weight ([4]; Mouse Fibrosarcoma): ~80%
Dose dependence of tumour weight ([4]; Mouse Fibrosarcoma in C3H mice at doses of 0.5 to 30 mg/kg): Dose-dependent decrease in tumour weight in
Inhibition of tumour volume ([4]; Mouse Fibrosarcoma in C3H mice, Day 15 after tumour implantation): approximately 80% on Day 15 after tumour laimpntation
Anti-tumour efficacy (tumour volume, FIG. 27A) ([4]; R3, C3H mice, 5 mg/kg i.v. every other day, 14 days): significant anti-tumour efficacy compared to saline, scrambled and mismatched controls
Dose dependence of anti-tumour activity (FIG. 27C) ([4]; R3, C3H mice, 0.5-30 mg/kg): dose-dependent anti-tumour activity
